Here are results for 29 molecules from patent US20240199546A1, “INHIBITORS OF SOLUTE CARRIER FAMILY 6A MEMBER 19 (SLC6A19) AND METHODS OF USE THEREOF” (Maze Therapeutics, Inc., priority 2022, published 2024).

A word on the IC50: it is the point on the concentration scale where inhibition reaches its midpoint.

This assay addresses T1, human SLC6A19 and TMEM27 (Homo sapiens, UniProt Q695T7).
T1 construct: expressed in transfected cells
T1 sequence (Q695T7 1-634): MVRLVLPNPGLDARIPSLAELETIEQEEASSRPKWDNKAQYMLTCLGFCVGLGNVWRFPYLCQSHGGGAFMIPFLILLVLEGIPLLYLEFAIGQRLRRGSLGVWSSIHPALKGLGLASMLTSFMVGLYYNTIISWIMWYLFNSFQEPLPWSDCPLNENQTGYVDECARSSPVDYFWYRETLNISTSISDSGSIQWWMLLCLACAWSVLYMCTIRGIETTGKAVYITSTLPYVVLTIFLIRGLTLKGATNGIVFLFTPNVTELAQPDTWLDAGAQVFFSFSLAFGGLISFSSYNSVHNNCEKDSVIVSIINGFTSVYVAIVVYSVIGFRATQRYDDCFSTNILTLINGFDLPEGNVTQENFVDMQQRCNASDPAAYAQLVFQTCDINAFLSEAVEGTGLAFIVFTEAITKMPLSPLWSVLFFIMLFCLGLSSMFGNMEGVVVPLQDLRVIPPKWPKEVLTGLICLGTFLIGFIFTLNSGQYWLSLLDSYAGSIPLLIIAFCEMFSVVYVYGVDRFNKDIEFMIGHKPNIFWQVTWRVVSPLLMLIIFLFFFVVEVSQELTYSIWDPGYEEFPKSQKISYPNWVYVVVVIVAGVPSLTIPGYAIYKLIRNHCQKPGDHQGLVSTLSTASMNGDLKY
T1 sequence (Q9HBJ8 15-222 partner): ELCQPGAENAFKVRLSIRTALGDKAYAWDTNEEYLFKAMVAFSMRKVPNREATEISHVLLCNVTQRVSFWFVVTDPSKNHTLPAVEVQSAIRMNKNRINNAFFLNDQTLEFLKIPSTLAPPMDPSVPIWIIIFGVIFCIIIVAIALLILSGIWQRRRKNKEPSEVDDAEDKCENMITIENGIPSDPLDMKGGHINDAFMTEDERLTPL
The assay can be described thus: Radiolabelled (3H) leucine uptake in CHO cells with doxycycline-inducible expression of human SLC6A19 and TMEM27 (Example B-1). It counts as cell-based. The note with it: CHO cells with doxycycline-inducible expression of human SLC6A19 and TMEM27, read-out: SLC6A19_Radioligand Uptake Assay IC50. Put shortly: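 CHO cells were induced with doxycycline for 18 h at 37 °C, washed in HBSS, then exposed to compounds for 1 h: 8-point, 3-fold dilutions in duplicate, 0.5% DMSO final. Uptake measured by scintillation counting after 2 h shaking. Activity normalized with positive control as 0% and DMSO as 100%.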
For `O=C(NCc1cc2cc(Cl)c(OCc3cocn3)cc2[nH]1)C1CC1` [Compound 429, N-((5-chloro-6-(oxazol-4-ylmethoxy)-1H-indol-2-yl)methyl)cyclopropanecarboxamide], the IC50 turned out to be 215 nM.

`[2H]C([2H])([2H])C1(C(=O)NCc2cc3cc(Cl)c(OCc4cscn4)cc3[nH]2)CC1` [Compound 483, N-((5-chloro-6-(thiazol-4-ylmethoxy)-1H-indol-2-yl)methyl)-1-(methyl-d3)cyclopropane-1-carboxamide]: the IC50 worked out at 170 nM.

For the molecule `Cc1cc(COc2cc3[nH]c(CNC(=O)[C@@H](O)CF)cc3cc2Cl)on1` [Compound 247, (R)-N-((5-chloro-6-((3-methylisoxazol-5-yl)methoxy)-1H-indol-2-yl)methyl)-3-fluoro-2-hydroxypropanamide], the IC50 was 770 nM.

`CC1(C(=O)NCc2cc3cc(Cl)c(OCCc4cccnc4)cc3[nH]2)CC1` [Compound 331, N-((5-chloro-6-(2-(pyridin-3-yl)ethoxy)-1H-indol-2-yl)methyl)-1-methylcyclopropane-1-carboxamide]: the IC50 came to 452 nM.

Consider `Cc1cc(COc2cc3[nH]c(CNC(=O)[C@@H]4CC(F)(F)CN4C)cc3cc2Cl)on1` [Compound 668, (S)-N-((5-chloro-6-((3-methylisoxazol-5-yl)methoxy)-1H-indol-2-yl)methyl)-4,4-difluoro-1-methylpyrrolidine-2-carboxamide], for which the IC50 came to 1150 nM.

For `C[C@@H](O)C(=O)NCc1cc2cc(F)c(OCc3cscn3)cc2[nH]1` [Compound 282, (R)-N-((5-fluoro-6-(thiazol-4-ylmethoxy)-1H-indol-2-yl)methyl)-2-hydroxypropanamide], the IC50 amounted to 2670 nM.

Regarding `Cc1cc(COc2cc3[nH]c(CNC(=O)C(C)C#N)cc3cc2Cl)on1` (single isomer, unassigned) [Compound 447, (S or R)-N-((5-chloro-6-((3-methylisoxazol-5-yl)methoxy)-1H-indol-2-yl)methyl)-2-cyanopropanamide], the IC50 worked out at 208 nM.

With `Cc1cc(COc2cc3[nH]c(CNC(=O)C[C@H](C)O)cc3cc2Cl)on1` [Compound 286, (S)-N-((5-chloro-6-((3-methylisoxazol-5-yl)methoxy)-1H-indol-2-yl)methyl)-3-hydroxybutanamide], the IC50 was found to be 910 nM.

Consider `Cc1cc(COc2cc3[nH]c(CNC(=O)C4CCO4)cc3cc2Cl)on1` (centres unmarked) [Compound 278, N-((5-chloro-6-((3-methylisoxazol-5-yl)methoxy)-1H-indol-2-yl)methyl)oxetane-2-carboxamide], for which the IC50 amounted to 108 nM.

Consider `Cc1cc(COc2cc3[nH]c(CNC(=O)C(F)F)cc3cc2Cl)on1` [Compound 563, N-((5-chloro-6-((3-methylisoxazol-5-yl)methoxy)-1H-indol-2-yl)methyl)-2,2-difluoroacetamide], for which the IC50 amounted to 82.2 nM.

For the molecule `C[C@H]1CCN(C(=O)NCc2cc3cc(F)c(OCc4ccon4)cc3[nH]2)C1` [Compound 382, (S)-N-((5-fluoro-6-(isoxazol-3-ylmethoxy)-1H-indol-2-yl)methyl)-3-methylpyrrolidine-1-carboxamide], the IC50 stood at 420 nM.

Regarding `C[C@@H]1CCN1C(=O)NCc1cc2cc(Cl)c(OCc3cscn3)cc2[nH]1` [Compound 361, (R)-N-((5-chloro-6-(thiazol-4-ylmethoxy)-1H-indol-2-yl)methyl)-2-methylazetidine-1-carboxamide], the IC50 amounted to 286 nM.

Turning to `CC1(C(=O)NCc2cc3cc(Cl)c(OCCC4CCCO4)cc3[nH]2)CC1` (racemic) [Compound 397, (S)-N-((5-chloro-6-(2-(tetrahydrofuran-2-yl)ethoxy)-1H-indol-2-yl)methyl)-1-methylcyclopropane-1-carboxamide and (R)-N-((5-chloro-6-(2-(tetrahydrofuran-2-yl)ethoxy)-1H-indol-2-yl)methyl)-1-methylcyclopropane-1-carboxamide], the IC50 came out at 492 nM.

Turning to `Cc1cc(CNc2cc3[nH]c(CNC(=O)C4(C)CC4)cc3cc2Cl)no1` [Compound 451, N-((5-chloro-6-(((5-methylisoxazol-3-yl)methyl)amino)-1H-indol-2-yl)methyl)-1-methylcyclopropane-1-carboxamide], the IC50 was found to be 237 nM.

For the molecule `COCC1(C(=O)NCc2cc3cc(Cl)c(OCc4cscn4)cc3[nH]2)CC1` [Compound 279, N-((5-chloro-6-(thiazol-4-ylmethoxy)-1H-indol-2-yl)methyl)-1-(methoxymethyl)cyclopropane-1-carboxamide], the IC50 stood at 383 nM.

Regarding `CC1(C(=O)NCc2cc3cc(C4CC4(F)F)c(OCc4cscn4)cc3[nH]2)CC1` (centres unmarked) [Compound 657, N-((5-(2,2-difluorocyclopropyl)-6-(thiazol-4-ylmethoxy)-1H-indol-2-yl)methyl)-1-methylcyclopropane-1-carboxamide], the IC50 stood at 654 nM.

As to `[2H]C([2H])(NC(C)=O)c1cc2cc(Cl)c(OCc3cc(C)no3)cc2[nH]1` [Compound 345, N-((5-chloro-6-((3-methylisoxazol-5-yl)methoxy)-1H-indol-2-yl)methyl-d2)acetamide], the concentration for half-maximal inhibition (IC50) worked out at 62.7 nM.

`Cc1cc(COc2cc3[nH]c(CNC(=O)CN(C)C)cc3cc2Cl)on1` [Compound 579, N-((5-chloro-6-((3-methylisoxazol-5-yl)methoxy)-1H-indol-2-yl)methyl)-2-(dimethylamino)acetamide]: the IC50 was 587 nM.

`O=C(NCc1cc2cc(F)c(OCc3cocn3)cc2[nH]1)N1CCC1` [Compound 358, N-((5-fluoro-6-(oxazol-4-ylmethoxy)-1H-indol-2-yl)methyl)azetidine-1-carboxamide]: the IC50 turned out to be 319 nM.

For `CC1(C(=O)NCc2cc3cc(Cl)c(CCn4nccn4)cc3[nH]2)CC1` [Compound 586, N-((6-(2-(2H-1,2,3-triazol-2-yl)ethyl)-5-chloro-1H-indol-2-yl)methyl)-1-methylcyclopropane-1-carboxamide], the IC50 was determined as 176 nM.

Turning to `Cc1cc(COc2cc3[nH]c(CNC(=O)C(C)C#N)cc3cc2Cl)on1` (single isomer, unassigned) [Compound 446, (R or S)-N-((5-chloro-6-((3-methylisoxazol-5-yl)methoxy)-1H-indol-2-yl)methyl)-2-cyanopropanamide], the IC50 turned out to be 221 nM.

With `COCCNC(=O)NCc1cc2cc(Cl)c(OCc3cscn3)cc2[nH]1` [Compound 380, 1-((5-chloro-6-(thiazol-4-ylmethoxy)-1H-indol-2-yl)methyl)-3-(2-methoxyethyl)urea], the IC50 stood at 1130 nM.

As for `COc1cc2cc(CNC(=O)C3(C)CC3)[nH]c2cc1CCn1ccnn1` [Compound 588, N-((6-(2-(1H-1,2,3-triazol-1-yl)ethyl)-5-methoxy-1H-indol-2-yl)methyl)-1-methylcyclopropane-1-carboxamide], the IC50 is 3670 nM.

In the case of `Cc1cc(COc2cc3[nH]c(CNC(=O)[C@@H]4C[C@@H]4F)cc3cc2Cl)on1` [Compound 540, (1S,2S)-N-((5-chloro-6-((3-methylisoxazol-5-yl)methoxy)-1H-indol-2-yl)methyl)-2-fluorocyclopropane-1-carboxamide], the IC50 was 131 nM.

Turning to `Cc1cc(COc2cc3[nH]c(CNC(=O)[C@@H]4CCC[C@H]4O)cc3cc2Cl)on1` (racemic) [Compound 534, (1R,2R)-N-((5-chloro-6-((3-methylisoxazol-5-yl)methoxy)-1H-indol-2-yl)methyl)-2-hydroxycyclopentane-1-carboxamide and (1S,2S)-N-((5-chloro-6-((3-methylisoxazol-5-yl)methoxy)-1H-indol-2-yl)methyl)-2-hydroxycyclopentane-1-carboxamide], the IC50 is 3040 nM.

Consider `O=C(NCc1cc2cc(Cl)c(OCc3cscn3)cc2[nH]1)[C@H]1CCCO1` [Compound 266, (R)-N-((5-chloro-6-(thiazol-4-ylmethoxy)-1H-indol-2-yl)methyl)tetrahydrofuran-2-carboxamide], for which the IC50 came out at 142 nM.

In the case of `CC1(C(=O)NCc2cc3cc(OC(F)(F)F)c(OCc4cocn4)cc3[nH]2)CC1` [Compound 439, 1-methyl-N-((6-(oxazol-4-ylmethoxy)-5-(trifluoromethoxy)-1H-indol-2-yl)methyl)cyclopropane-1-carboxamide], the IC50 came out at 327 nM.

With `O=C(NCc1cc2cc(Cl)c(OCc3cscn3)cc2[nH]1)C1CCCO1` (centres unmarked) [Compound 268, N-((5-chloro-6-(thiazol-4-ylmethoxy)-1H-indol-2-yl)methyl)tetrahydrofuran-2-carboxamide], the IC50 amounted to 421 nM.

In the case of `CC1(C(=O)NCc2cc3ccc(OCCC45CC(C4)C5)cc3[nH]2)CC1` [Compound 193, N-((6-(2-(bicyclo[1.1.1]pentan-1-yl)ethoxy)-1H-indol-2-yl)methyl)-1-methylcyclopropane-1-carboxamide], the IC50 came to 9880 nM.
